“Also recorded” adds a separate entry of the source. One block for each compound: values may come before it. Square brackets hold non-standard residues; d marks the D form. Peptide text beside a SMILES is read from it. * marks the point of attachment. Sta = CC(C)C[C@H](N)[C@@H](O)CC(=O)O; Isovaleryl = CC(C)CC(=O)*
What was measured:
chromaffin cells = experiment: Aβ-peptide secretion by primary chromaffin cell cultures (RIA of Aβ1-40 in media); assay type: cell-based, bovine; details: 15 minutes
Protocol: Primary chromaffin cell cultures containing approximately 2 million cells in each culture were produced using established methods (Hook et al., ibid.; and Tezapsidis et al., ibid.). Exocytosis of the contents of the vesicles in such cells was induced by exposing the cells to KCl (50 mM) or nicotine (10 μM) for 15 minutes.

[1] = test system: β-secretase endoprotease activity in chromaffin vesicle lysate; experiment: Protease inhibitors of β-secretase endoprotease activity in chromaffin vesicle lysate (Z*Val-Lys-Met-MCA cleavage, with aminopeptidase M); assay type: biochemical, bovine; details: for inhibition of β-secretase endoprotease activity in the lysate, in words: chromaffin vesicle lysate; for % CONTROL (β-secretase endoprotease activity): pH 5.5, with aminopeptidase M, activity as % of no-inhibitor control
Protocol: (§1) The β-secretase endoprotease activity was identified by incubating the chromaffin vesicle lysate (2-10 μl of 10-20 mg protein/ml) with the Z*Val-Lys-Met-MCA substrate (100 μM final concentration) and detecting AMC fluorescence. The chromaffin vesicle lysate was prepared as described in Example I. The endoprotease activity was determined as a function of pH by varying the pH of the incubation solution between 3.0 to 8.0 in 0.5 pH increments. Citric acid, sodium phosphate, and Tris-HCl buffers (100 mM final concentration) were used to adjust the pH of the incubation solutions between 3.0 to 5.5, 6.0 to 7.5, and 8.0, respectively. Duplicate samples at each pH increment (100 μl each) were distributed among 22 wells in a covered microtiter well plate and incubated at 37° C. for 8 hours in a water bath.
(§2) As discussed above, endoprotease cleavage between the Met-MCA bond in the Z*Val-Lys-Met-MCA substrate produces fluorescent AMC, but endoprotease cleavage between the Lys-Met or Val-Lys bonds in that substrate produces non-fluorescent Lys-Met-MCA and Met-MCA peptides. To insure that the latter two endoprotease cleavages were detected, aminopeptidase M (20 μg/ml final concentration, BOEHRINGER […]) was added to each incubation solutions to produce fluorescent AMC from the Lys-Met-MCA and Met-MCA peptides. Prior to adding the aminopeptidase M, each incubation solution was adjusted to a pH 8.3 using Tris-HCl because aminopeptidase M functions at a basic pH. A second incubation at 37° C. for 1 hour in the water bath was conducted to complete the aminopeptidase M reaction.
Upon termination of that second incubation, AMC fluorescence was assayed using a fluorometer (IDEXX fluorometer, FCA Fluorescence Concentration Analyzer, cat. no. 10-105-2, BAXTER HEALTH CARE CORP., Mundelein, Ill.) at excitation and emission wavelengths of 365 and 450 nm, respectively. Standard AMC concentrations were also measured to quantitate relative fluorescence with the molar amount (pmol) of AMC generated by the secretase. The resulting AMC fluorescence reflects the endoprotease activity in cleaving either the Met-MCA, Lys-Met. and Val-Lys bonds in the Z*Val-Lys-Met-MCA substrate.
The effect of the aminopeptidase M and the basic pH buffer used in the β-secretase endoprotease activity assay was determined. The assay was conducted as described in Example VIII with DTT. Three assays were conducted, one with aminopeptidase M in its basic pH buffer, another with the basic pH buffer but not aminopeptidase M, and a third without either the buffer or the aminopeptidase M. Briefly, the chromaffin vesicle lysate and the substrate Z*Val-Lys-Met-MCA were incubated for 30 minutes at a specified pH and the resulting fluorescence measured. The aminopeptidase M in the basic pH buffer or that buffer alone (final concentration of 75 mM Tris-HCl pH 8.2) was added to the assay and incubated an additional 60 minutes at 37° C. […] The assay conducted with aminopeptidase M and its basic pH buffer and that of the control assay having just the basic pH buffer produced approximately the same amount of fluorescence.
The effect of various protease inhibitors on β-secretase endoprotease activity in the lysate was determined at the pH optimum 5.5 in the assay described in Example IX containing aminopeptidase M. Protease inhibitors specific for various protease classes were used. The protease inhibitor was added to each assay at the start of the reaction at the appropriate concentration. The extent of inhibition was expressed as a percentage of the activity without the inhibitor (control). Triplicate assays varied by less than 10%.

[2] = test system: Peak I β-secretase endoprotease activity; experiment: Protease inhibitors of β-secretase endoprotease activity in Peak I; assay type: biochemical, bovine; details: for Peak I (%) of control: control (no inhibitor) = 100
Protocol: (§3) The protease inhibitor was added to each assay at the start of the reaction at the appropriate concentration. The extent of inhibition was expressed as a percentage of the activity without the inhibitor (control).
(§4) The contents of the eluted Con-A bound fraction were fractioned according to molecular size using a Sephacryl S200 column (Krieger, T. K. and Hook, V. Y. H. ibid.) .

[3] = test system: Peak II β-secretase endoprotease activity; experiment: Protease inhibitors of β-secretase endoprotease activity in Peak II; assay type: biochemical, bovine; details: for Peak II (%) of control: control (no inhibitor) = 100
Protocol: as §3, §4

[4] = test system: β-secretase endoprotease activity in chromaffin vesicles; experiment: Effect of reducing agent DTT on β-secretase endoprotease activity in chromaffin vesicle lysate; assay type: biochemical, bovine; details: 1 mM DTT vs absence of DTT; lysed vesicles
Protocol: as §1, with “Duplicate samples at each pH increment (100 μl each) were distributed among 22 wells in a covered microtiter well plate and incubated at 37° C. for 8 hours in a water bath.” left out
as §2, with “Prior to adding the aminopeptidase M, each incubation solution was adjusted to a pH 8.3 using Tris-HCl because aminopeptidase M functions at a basic pH. A second incubation at 37° C. for 1 hour in the water bath was conducted to complete the aminopeptidase M reaction.” left out
The effect of the reducing agent dithiothreitol (DTT) on β-secretase endoprotease activity was determined using the assay described in Example III. […]

[5] = test system: β-secretase endoprotease activity; experiment: β-secretase endoprotease activity with/without DTT in fractions obtained during isolation of chromaffin vesicles; assay type: biochemical, bovine; details: pH 5.5
Protocol: The effect of the reducing agent dithiothreitol (DTT) on β-secretase endoprotease activity was determined using the assay described in Example III. Briefly, the lysed vesicles were incubated with the substrate Z*Val-Lys-Met-MCA in the presence or absence of 1 mM DTT and the resulting fluorescence plotted as a function of pH. Both with and without DTT, β-secretase endoprotease activity was detected and in both cases that activity had pH optimum of about 4.0 to 6.0, which is consistent with the intravesicular pH of chromaffin vesicles.
The β-secretase endoprotease activity of fractions obtained during the isolation procedure described in Example I was determined at the pH optimum of 5.5, with and without DTT using the assay described in Example VII.

SMILES: CN1CCCC1c1cccnc1 (centres unmarked) [nicotine]
increase in the concentration of Aβ1-40 peptide in the media relative to control media (chromaffin cells; nicotine 10 μM): ~550 fold

SMILES: CC(C)C[C@H](NC(=O)[C@@H](NC(=O)N[C@@H](Cc1ccccc1)C(=O)O)[C@@H]1CCN=C(N)N1)C(=O)N[C@H](C=O)Cc1ccccc1 [Chymostatin]
inhibition of β-secretase endoprotease activity in the lysate, in words [1]: greatly inhibited
% CONTROL (β-secretase endoprotease activity) ([1]; inhibitor 10 μM): 11%
inhibition of Peak I activity, in words [2]: maximally inhibited; also recorded: inhibited less than that of the lysate
Peak I (%) of control ([2]; inhibitor 10 μM): 0%
inhibition of Peak II activity, in words [3]: maximally inhibited; also recorded: inhibited less than that of the lysate
Peak II (%) of control ([3]; inhibitor 10 μM): 35%

inhibition of Peak I activity, in words [2]: significantly inhibited
Peak I (%) of control ([2]; inhibitor 500 μM): 31%
inhibition of Peak II activity, in words [3]: only slightly inhibited
Peak II (%) of control ([3]; inhibitor 500 μM): 72%
SMILES: c1cnc2c(c1)ccc1cccnc12 [1,10 Phenanthroline]

inhibition of β-secretase endoprotease activity in the lysate, in words [1]: completely inhibited
% CONTROL (β-secretase endoprotease activity) ([1]; inhibitor 10 μM): 0%
Peak I (%) of control ([2]; inhibitor 10 μM): 0%
Peak II (%) of control ([3]; inhibitor 10 μM): 0%
SMILES: CC(C)CCNC(=O)[C@H](CC(C)C)NC(=O)[C@H]1O[C@@H]1C(=O)O [E64c]
inhibition of Peak I activity, in words [2]: maximally inhibited; also recorded: completely inhibited
inhibition of Peak II activity, in words [3]: maximally inhibited; also recorded: completely inhibited

SMILES: [Cl-].[K+] [KCl, potassium chloride]
increase in the concentration of Aβ1-40 peptide in the media relative to control media (chromaffin cells; KCl 50 mM): approximately 350 fold

SMILES: CC(C)CC(=O)N[C@H](C(=O)N[C@H](C(=O)N[C@@H](CC(C)C)[C@@H](O)CC(=O)N[C@@H](C)C(=O)N[C@@H](CC(C)C)[C@@H](O)CC(=O)O)C(C)C)C(C)C [Pepstatin A] (Isovaleryl-VV[Sta]A[Sta]-OH)
inhibition of β-secretase endoprotease activity in the lysate, in words [1]: slightly inhibited
% CONTROL (β-secretase endoprotease activity) ([1]; inhibitor 10 μM): 78%
inhibition of Peak I activity, in words [2]: did not significantly inhibit; also recorded: slightly inhibited
Peak I (%) of control ([2]; inhibitor 100 μM): 85%
inhibition of Peak II activity, in words [3]: did not significantly inhibit; also recorded: increased the activity
Peak II (%) of control ([3]; inhibitor 100 μM): 132%

increase in the β-secretase endoprotease activity [4]: approximately 5 fold
RATIO of activities (with/without DTT) ([5]; Adrenal Medulla Homgenate): 4.7
RATIO of activities (with/without DTT) ([5]; Pellet from 1st 8,800 rpm Centrifugation (crude vesicle fraction)): 3.2
RATIO of activities (with/without DTT) ([5]; Pellet from 2nd 8,800 rpm Centrifugation (washed vesicle fraction)): 6.3
RATIO of activities (with/without DTT) ([5]; Pellet from 1,500 rpm Centrifugation (nuclear fraction)): 11.6
RATIO of activities (with/without DTT) ([5]; Pellet from 25,000 rpm Discontinuous Gradient Centrifugation (vesicle fraction)): 11.0
SMILES: O[C@H](CS)[C@H](O)CS (racemic) [DTT, dithiothreitol]

% CONTROL (β-secretase endoprotease activity) ([1]; inhibitor 1 mM): 100%
Peak I (%) of control ([2]; inhibitor 1 mM): 99%
Peak II (%) of control ([3]; inhibitor 1 mM): 138%
SMILES: O=C(O)CN(CCN(CC(=O)O)CC(=O)O)CC(=O)O [EDTA, ethylenediaminetetraacetic acid]

% CONTROL (β-secretase endoprotease activity) ([1]; inhibitor 1 mM): 99%
Peak I (%) of control ([2]; inhibitor 1 mM): 108%
Peak II (%) of control ([3]; inhibitor 1 mM): 142%
SMILES: O=C(O)CN(CCOCCOCCN(CC(=O)O)CC(=O)O)CC(=O)O [EGTA]

SMILES: CC(=O)N[C@@H](CC(C)C)C(=O)N[C@@H](CC(C)C)C(=O)N[C@H](C=O)CCCNC(=N)N [Leupeptin]
inhibition of β-secretase endoprotease activity in the lysate, in words [1]: completely inhibited
% CONTROL (β-secretase endoprotease activity) ([1]; inhibitor 100 μM): 0%
inhibition of Peak I activity, in words [2]: maximally inhibited; also recorded: completely inhibited
Peak I (%) of control ([2]; inhibitor 100 μM): 0%
inhibition of Peak II activity, in words [3]: maximally inhibited; also recorded: completely inhibited
Peak II (%) of control ([3]; inhibitor 100 μM): 0%

SMILES: O=S(=O)(F)Cc1ccccc1 [PMSF, phenylmethylsulfonyl fluoride]
inhibition of β-secretase endoprotease activity in the lysate, in words [1]: significantly inhibited
% CONTROL (β-secretase endoprotease activity) ([1]; inhibitor 100 μM): 58%

SMILES: O=C(O)c1cc[c]([Hg][OH])cc1 [pHMB]
inhibition of β-secretase endoprotease activity in the lysate, in words [1]: greatly inhibited
% CONTROL (β-secretase endoprotease activity) ([1]; inhibitor 1 mM): 35%
inhibition of Peak I activity, in words [2]: slightly inhibited; also recorded: inhibited less than that of the lysate
Peak I (%) of control ([2]; inhibitor 1 mM): 67%
inhibition of Peak II activity, in words [3]: slightly inhibited; also recorded: inhibited less than that of the lysate
Peak II (%) of control ([3]; inhibitor 1 mM): 68%

— patent publication US20020132281A1, “Secretases related to alzheimer's dementia” (priority 1998, published 2002)
